These are literature values, as cited in paper PMC8252455, “Prediction of a clinically effective dose of THY1773, a novel V 1B receptor antagonist, based on preclinical data” (Biopharmaceutics & Drug Disposition, 2021).

Molecules are shown by their SMILES.

The subject of the data set is depressive symptoms. Also on record: method as in Griebel, Beeské, & Stahl, 2012. The conditions noted are these: patients with MDD; ref Griebel, Beeské, & Stahl, 2012; cited from earlier work.

In the case of `COc1ccc(S(=O)(=O)N2C(=O)[C@@](c3ccccc3OC)(N3C[C@H](O)C[C@H]3C(=O)N(C)C)c3cc(Cl)ccc32)c(OC)c1` [SSR149415], the “Antidepressant effect in MDD trials” value is on record as “failed to demonstrate clear antidepressant effects”.
